Assay results: patent publication US20120071499A1, “Substituted Spiro[3H-Indole-3,6'(5'H)-[1H]Pyrrolo[1,2c]Imidazole-1',2(1H,2'H)-diones” (priority 2010, published 2012)

Target: interaction between p53 and MDM2 proteins (Homo sapiens, UniProt Q00987)
Assay: HTRF assay of inhibition of p53-MDM2 interaction (GST-MDM2 / biotinylated p53 peptide)
Procedure: The ability of the compounds to inhibit the interaction between p53 and MDM2 proteins was measured by an HTRF (homogeneous time-resolved fluorescence) assay in which recombinant GST-tagged MDM2 binds to a peptide that resembles the MDM2-interacting region of p53. Binding of GST-MDM2 protein and p53-peptide (biotinylated on its N-terminal end) is registered by the FRET (fluorescence resonance energy transfer) between Europium (Eu)-labeled anti-GST antibody and streptavidin-conjugated Allophycocyanin (APC).
Test is performed in black flat-bottom 384-well plates (Costar) in a total volume of 40 uL containing: 90 nM biotinylate peptide, 160 ng/ml GST-MDM2, 20 nM streptavidin-APC (PerkinElmerWallac), 2 nM Eu-labeled anti-GST-antibody (PerkinElmerWallac), 0.2% bovine serum albumin (BSA), 1 mM dithiothreitol (DTT) and 20 mM Tris-borate saline (TBS) buffer as follows: Add 10 uL of GST-MDM2 (640 ng/ml working solution) in reaction buffer to each well. […] Incubate at 37° C. for 1 h. Add 20 uL streptavidin-APC and Eu-anti-GST antibody mixture (6 nM Eu-anti-GST and 60 nM streptavidin-APC working solution) in TBS buffer with 0.2% BSA, shake at room temperature for 30 minutes and read using a TRF-capable plate reader at

Chain of interaction between p53 and MDM2 proteins (Q00987 whole entry): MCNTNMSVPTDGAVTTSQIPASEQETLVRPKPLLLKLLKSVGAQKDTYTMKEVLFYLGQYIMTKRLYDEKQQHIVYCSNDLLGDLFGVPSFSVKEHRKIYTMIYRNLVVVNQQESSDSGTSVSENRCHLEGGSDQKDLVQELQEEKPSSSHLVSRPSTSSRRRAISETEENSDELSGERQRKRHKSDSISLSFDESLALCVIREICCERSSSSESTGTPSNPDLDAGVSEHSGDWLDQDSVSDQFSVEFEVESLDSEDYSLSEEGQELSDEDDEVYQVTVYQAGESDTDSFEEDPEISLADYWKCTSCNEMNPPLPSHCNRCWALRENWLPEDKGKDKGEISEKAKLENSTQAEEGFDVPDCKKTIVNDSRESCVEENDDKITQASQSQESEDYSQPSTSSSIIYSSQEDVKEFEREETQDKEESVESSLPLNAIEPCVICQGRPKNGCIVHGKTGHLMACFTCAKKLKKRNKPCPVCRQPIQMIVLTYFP

| SMILES | IC50 [nM] |
| --- | --- |
| CC(C)(C)CC1N2CN(CC(=O)O)C(=O)C2C(c2cccc(Cl)c2F)C12C(=O)Nc1cc(Cl)ccc12 (racemic) [Example 37, rac of 2-((3R,5′S,7′S,7a′R)-6-chloro-7′-(3-chloro-2-fluorophenyl)-5′-neopentyl-1′,2-dioxo-7′,7a′-dihydrospiro[indoline-3,6′-pyrrolo[1,2-c]imidazole]-2′(1′H,3′H,5′H)-yl)acetic acid] | 13 |
| COc1cc(N2CN3[C@@H](CC(C)(C)C)[C@@]4(C(=O)Nc5cc(Cl)ccc54)[C@@H](c4cccc(Cl)c4F)[C@@H]3C2=O)ccc1C(N)=O (single isomer, unassigned) [Example 25] | 4 |
| CC(C)(C)C[C@H]1N2CN(c3ccc(C(=O)O)cc3)C(=O)[C@@H]2[C@@H](c2cccc(Cl)c2F)[C@@]12C(=O)Nc1cc(Cl)ccc12 [Example 30, chiral 4-((3S,5′R,7′R,7a′S)-6-chloro-7′-(3-chloro-2-fluorophenyl)-5′-neopentyl-1′,2-dioxo-7′,7a′-dihydrospiro[indoline-3,6′-pyrrolo[1,2-c]imidazole]-2′(1′H,3′H,5′H)-yl)benzoic acid] | 128 |
| COc1cc(N2CN3[C@@H](CC(C)(C)C)[C@@]4(C(=O)N(CO)c5cc(Cl)ccc54)[C@@H](c4cccc(Cl)c4F)[C@@H]3C2=O)ccc1C(=O)O (racemic) [Example 16, Rac 4-((3R,5′S,7′S,7a′R)-6-chloro-7′-(3-chloro-2-fluorophenyl)-1-(hydroxymethyl)-5′-neopentyl-1′,2-dioxo-7′,7a′-dihydrospiro[indoline-3,6′-pyrrolo[1,2-c]imidazole]-2′(1′H,3′H,5′H)-yl)-2-methoxybenzoic acid] | 25 |
| COc1cc(N2CN3[C@@H](CC(C)(C)C)[C@@]4(C(=O)Nc5cc(Cl)ccc54)[C@@H](c4cccc(Cl)c4F)[C@@H]3C2=O)ccc1C(=O)O (racemic) [Example 18, Rac 4-((3R,5′S,7′S,7a′R)-6-chloro-7′-(3-chloro-2-fluorophenyl)-5′-neopentyl-1′,2-dioxo-7′,7a′-dihydrospiro[indoline-3,6′-pyrrolo[1,2-c]imidazole]-2′(1′H,3′H,5′H)-yl) 2-methoxybenzoic acid] | 7 |
| COc1cc(N2CN3[C@@H](CC(C)(C)C)[C@@]4(C(=O)N(CO)c5cc(Cl)ccc54)[C@@H](c4cccc(Cl)c4F)[C@@H]3C2=O)ccc1C(N)=O [Example 31] | 12 |
| COc1cc(C(=O)O)ccc1N1CN2[C@@H](CC(C)(C)C)[C@@]3(C(=O)Nc4cc(Cl)ccc43)[C@@H](c3cccc(Cl)c3F)[C@@H]2C1=O [Example 21, chiral 4-((3S,5′R,7′R,7a′S)-6-chloro-7′-(3-chloro-2-fluorophenyl)-5′-neopentyl-1′,2-dioxo-7′,7a′-dihydrospiro[indoline-3,6′-pyrrolo[1,2-c]imidazole]-2′(1′H,3′H,5′H)-yl)-3-methoxybenzoic acid] | 6 |
| COc1cc(C(N)=O)ccc1N1CN2[C@@H](CC(C)(C)C)[C@@]3(C(=O)Nc4cc(Cl)ccc43)[C@@H](c3cccc(Cl)c3F)[C@@H]2C1=O [Example 22, chiral 4-((3R,5′S,7′S,7a′R)-6-chloro-7′-(3-chloro-2-fluorophenyl)-5′-neopentyl-1′,2-dioxo-7′,7a′-dihydrospiro[indoline-3,6′-pyrrolo[1,2-c]imidazole]-2′(1′H,3′H,5′H)-yl)-3-methoxybenzamide] | 5 |
